Test results: ChEMBL document CHEMBL1909046, “DrugMatrix in vitro pharmacology data”

Experiments:
[1] = target: Mitogen-activated protein kinase 14 (Homo sapiens, UniProt Q16539); design: species or system Escherichia coli;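 note: inhibition of p38alpha enzyme activity in a biochemical kinase assay, with myelin basic protein serving as substrate; in other assays of this panel Not Active means under 50% inhibition at 10 µM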
[2] = DRUGMATRIX: Atrial Natriuretic Factor (ANF) radioligand binding (ligand: [125I] ANF (rat)); assay type: cell membranes, Cavia porcellus, Dunkin-Hartley, Adrenal gland, Membrane; settings: Not Active = under 50% inhibition at 10 µM
Cytochrome P450 2D6 = Cytochrome P450 2D6 (Homo sapiens, UniProt P10635); settings: bti-tn-5b1-4; note: in other assays of this panel Not Active means under 50% inhibition at 10 µM
Sequence of Cytochrome P450 2D6 (P10635 whole entry): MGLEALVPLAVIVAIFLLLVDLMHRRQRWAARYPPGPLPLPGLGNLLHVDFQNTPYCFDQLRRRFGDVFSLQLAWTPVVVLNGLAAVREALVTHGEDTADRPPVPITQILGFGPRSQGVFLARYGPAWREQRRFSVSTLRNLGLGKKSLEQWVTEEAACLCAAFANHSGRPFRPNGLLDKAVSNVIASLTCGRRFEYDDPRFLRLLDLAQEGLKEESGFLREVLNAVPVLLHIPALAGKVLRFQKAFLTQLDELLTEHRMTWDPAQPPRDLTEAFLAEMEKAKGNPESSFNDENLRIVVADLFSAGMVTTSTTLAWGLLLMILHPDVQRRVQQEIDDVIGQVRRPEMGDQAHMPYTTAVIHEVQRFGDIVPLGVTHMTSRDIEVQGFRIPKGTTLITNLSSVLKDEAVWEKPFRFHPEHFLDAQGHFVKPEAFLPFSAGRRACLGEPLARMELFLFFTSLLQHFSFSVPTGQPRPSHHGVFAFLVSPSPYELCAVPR

[3] = target: Mitogen-activated protein kinase 3 (Homo sapiens, UniProt P27361); test: DRUGMATRIX: Protein Serine/Threonine Kinase, ERK1 enzyme inhibition (substrate: Myelin Basic Protein); design: species or system Escherichia coli; settings: Not Active = under 50% inhibition at 10 µM
Sequence of Mitogen-activated protein kinase 3 (P27361 whole entry): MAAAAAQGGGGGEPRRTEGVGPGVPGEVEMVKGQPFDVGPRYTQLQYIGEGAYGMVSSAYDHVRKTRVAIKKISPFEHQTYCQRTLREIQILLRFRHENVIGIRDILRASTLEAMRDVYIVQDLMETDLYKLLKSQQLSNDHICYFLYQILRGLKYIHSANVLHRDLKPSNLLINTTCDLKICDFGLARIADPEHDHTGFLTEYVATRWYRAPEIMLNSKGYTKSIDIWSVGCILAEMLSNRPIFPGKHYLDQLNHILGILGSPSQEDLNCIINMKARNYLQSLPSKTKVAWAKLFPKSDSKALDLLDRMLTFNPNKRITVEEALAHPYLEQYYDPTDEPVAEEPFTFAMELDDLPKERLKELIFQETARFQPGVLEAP

D(4) dopamine receptor = target: T1, D(4) dopamine receptor (Homo sapiens, UniProt P21917); test: DRUGMATRIX: Dopamine D4.2 radioligand binding (ligand: [3H] Spiperone); assay type: cell membranes, CHO-K1, Membrane; settings: cho-k1; Not Active = under 50% inhibition at 10 µM
T1 sequence (P21917 whole entry): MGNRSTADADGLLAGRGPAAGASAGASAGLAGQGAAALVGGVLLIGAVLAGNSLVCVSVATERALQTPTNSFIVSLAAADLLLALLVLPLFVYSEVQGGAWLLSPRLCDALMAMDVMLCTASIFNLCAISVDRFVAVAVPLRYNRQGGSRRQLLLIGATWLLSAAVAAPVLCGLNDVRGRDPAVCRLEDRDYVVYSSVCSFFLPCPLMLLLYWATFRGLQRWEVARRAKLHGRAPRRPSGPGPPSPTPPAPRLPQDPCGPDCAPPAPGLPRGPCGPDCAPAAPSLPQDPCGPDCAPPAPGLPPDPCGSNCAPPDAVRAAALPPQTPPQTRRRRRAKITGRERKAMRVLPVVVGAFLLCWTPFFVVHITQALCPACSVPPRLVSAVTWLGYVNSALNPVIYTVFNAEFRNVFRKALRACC

[4] = target: T2, Alpha-1A adrenergic receptor (Rattus norvegicus, UniProt P43140); test: DRUGMATRIX: Alpha-1A adrenergic receptor radioligand binding (ligand: prazosin); assay type: cell membranes, Wistar, Submaxillary gland, Membrane; settings: Not Active = under 50% inhibition at 10 µM
T2 sequence (P43140 whole entry): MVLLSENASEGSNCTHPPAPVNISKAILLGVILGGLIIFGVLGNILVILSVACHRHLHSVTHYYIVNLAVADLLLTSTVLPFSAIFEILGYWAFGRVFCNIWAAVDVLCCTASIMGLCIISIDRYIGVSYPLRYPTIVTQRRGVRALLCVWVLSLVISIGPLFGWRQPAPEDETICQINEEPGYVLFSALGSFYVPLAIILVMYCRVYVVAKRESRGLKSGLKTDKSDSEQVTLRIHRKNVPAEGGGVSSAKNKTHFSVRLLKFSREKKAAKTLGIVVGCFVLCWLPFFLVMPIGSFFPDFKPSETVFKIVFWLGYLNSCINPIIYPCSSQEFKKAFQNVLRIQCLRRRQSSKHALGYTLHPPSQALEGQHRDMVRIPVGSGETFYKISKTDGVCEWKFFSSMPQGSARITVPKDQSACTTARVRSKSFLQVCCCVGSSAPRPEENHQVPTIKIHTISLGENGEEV

[5] = target: T3, C-C chemokine receptor type 4 (Homo sapiens, UniProt P51679); assay type: cell membranes, Membrane; settings: chem-1; note: in other assays of this panel Not Active means under 50% inhibition at 10 µM
T3 sequence (P51679 whole entry): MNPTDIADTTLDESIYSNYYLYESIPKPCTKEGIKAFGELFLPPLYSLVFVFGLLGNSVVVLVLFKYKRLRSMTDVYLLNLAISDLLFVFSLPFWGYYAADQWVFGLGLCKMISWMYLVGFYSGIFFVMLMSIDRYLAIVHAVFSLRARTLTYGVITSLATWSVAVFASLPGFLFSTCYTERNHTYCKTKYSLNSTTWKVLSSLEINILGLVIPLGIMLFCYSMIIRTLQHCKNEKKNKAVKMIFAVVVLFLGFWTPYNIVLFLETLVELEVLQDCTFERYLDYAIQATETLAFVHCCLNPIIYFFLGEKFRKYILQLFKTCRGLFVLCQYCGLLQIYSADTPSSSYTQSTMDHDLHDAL

[6] = target: T4, Neuropeptide Y receptor type 1 (Homo sapiens, UniProt P25929); assay type: cell membranes, Membrane; settings: sk-n-mc; note: in other assays of this panel Not Active means under 50% inhibition at 10 µM
T4 sequence (P25929 whole entry): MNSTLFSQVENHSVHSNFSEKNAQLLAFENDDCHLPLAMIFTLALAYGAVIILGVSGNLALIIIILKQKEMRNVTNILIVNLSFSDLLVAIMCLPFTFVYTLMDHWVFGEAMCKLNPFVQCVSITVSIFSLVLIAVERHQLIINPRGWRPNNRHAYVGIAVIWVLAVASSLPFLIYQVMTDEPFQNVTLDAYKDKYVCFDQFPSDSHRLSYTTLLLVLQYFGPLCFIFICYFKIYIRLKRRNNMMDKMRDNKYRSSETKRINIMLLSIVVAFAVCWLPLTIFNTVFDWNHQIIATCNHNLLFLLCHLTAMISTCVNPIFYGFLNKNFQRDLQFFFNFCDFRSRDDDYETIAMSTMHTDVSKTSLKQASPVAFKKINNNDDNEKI

Sequence of Mitogen-activated protein kinase 14 (Q16539 whole entry): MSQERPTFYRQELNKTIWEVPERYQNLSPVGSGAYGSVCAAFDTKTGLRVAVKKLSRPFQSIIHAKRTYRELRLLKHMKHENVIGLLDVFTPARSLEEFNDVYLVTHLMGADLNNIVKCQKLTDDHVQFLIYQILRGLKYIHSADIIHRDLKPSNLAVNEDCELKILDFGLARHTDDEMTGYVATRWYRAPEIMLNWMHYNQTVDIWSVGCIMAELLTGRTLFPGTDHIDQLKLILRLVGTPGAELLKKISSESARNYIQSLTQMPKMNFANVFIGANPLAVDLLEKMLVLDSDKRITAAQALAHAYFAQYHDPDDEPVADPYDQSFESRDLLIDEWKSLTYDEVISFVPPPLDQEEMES

[N-]=[N+]=CC(=O)OC[C@H](N)C(=O)O [AZASERINE]
Not Active: IC50 [1] | IC50 [2] | Ki [2] | IC50 (Cytochrome P450 2D6) | Ki (Cytochrome P450 2D6) | IC50 [3] | IC50 (D(4) dopamine receptor) | IC50 [4] | IC50 [5] | IC50 [6]

CCC[C@@H]1C[C@@H](C(=O)N[C@@H]([C@H]2O[C@H](SC)[C@H](O)[C@@H](O)[C@H]2O)[C@H](C)Cl)N(C)C1 [CLINDAMYCIN]
Not Active: IC50 [1] | IC50 [2] | Ki [2] | IC50 [3] | IC50 (D(4) dopamine receptor) | IC50 [4] | IC50 [5] | IC50 [6]

CN1C(=O)CN=C(c2ccccc2)c2cc(Cl)ccc21 [DIAZEPAM]
Not Active: IC50 [1] | IC50 [2] | Ki [2] | IC50 [3] | IC50 (D(4) dopamine receptor) | IC50 [4] | IC50 [5] | IC50 [6]

Cc1c(N(C)CS(=O)(=O)[O-])c(=O)n(-c2ccccc2)n1C.[Na+] [DIPYRONE SODIUM]
Not Active: IC50 [1] | IC50 [2] | Ki [2] | IC50 (Cytochrome P450 2D6) | Ki (Cytochrome P450 2D6) | IC50 (D(4) dopamine receptor) | IC50 [4] | IC50 [5] | IC50 [6]

CCOC(=O)C1=C(C)NC(C)=C(C(=O)OC)C1c1cccc(Cl)c1Cl (stereo not given) [FELODIPINE]
Not Active: IC50 [1] | IC50 [2] | Ki [2] | IC50 [3] | IC50 (D(4) dopamine receptor) | IC50 [4] | IC50 [5] | IC50 [6]

Cc1cn[nH]c1 [FOMEPIZOLE]
Not Active: IC50 [1] | IC50 [2] | Ki [2] | IC50 [3] | IC50 (D(4) dopamine receptor) | IC50 [4] | IC50 [5] | IC50 [6]

Cc1cnc(C(=O)NCCc2ccc(S(=O)(=O)NC(=O)NC3CCCCC3)cc2)cn1 [GLIPIZIDE]
Not Active: IC50 [2] | Ki [2] | IC50 (D(4) dopamine receptor) | IC50 [4] | IC50 [5] | IC50 [6]

COc1ccccc1OCC(O)CO (stereo not given) [GUAIFENESIN]
Not Active: IC50 [1] | IC50 [2] | Ki [2] | IC50 [3] | IC50 (D(4) dopamine receptor) | IC50 [4] | IC50 [5] | IC50 [6]

N=C(N)N/N=C/c1c(Cl)cccc1Cl [GUANABENZ]
Not Active: IC50 [1] | IC50 [2] | Ki [2] | IC50 (Cytochrome P450 2D6) | Ki (Cytochrome P450 2D6) | IC50 [3] | IC50 (D(4) dopamine receptor) | IC50 [5] | IC50 [6]

C/C=C\c1ccc(O)c(OC)c1 [ISOEUGENOL]
Not Active: IC50 [1] | IC50 [2] | Ki [2] | IC50 [3] | IC50 (D(4) dopamine receptor) | IC50 [4] | IC50 [5] | IC50 [6]

OCCN1CCN(CCCN2c3ccccc3Sc3ccc(Cl)cc32)CC1 [PERPHENAZINE]
Not Active: IC50 [1] | IC50 [2] | Ki [2] | IC50 [3] | IC50 (D(4) dopamine receptor) | IC50 [4] | IC50 [5] | IC50 [6]
